The results in this text go back to article PMC9450014, “The evaluation of ADME and pharmacokinetic properties of decoquinate derivatives for the treatment of malaria” (Frontiers in Pharmacology, 2022).

Type in all cases: in vitro ADME
Series [1] in a line: Passive permeability, parallel artificial membrane permeation assay (PAMPA). The following applies: donor pH 6.5, acceptor pH 7.4, 4 h, read-out: Permeability (LogPapp) (converted). As to the method:
A parallel artificial membrane permeation assay (PAMPA) was used to assess the passive permeability of compounds with a 96-well MultiScreen filter plate ([…] pore size, Millipore). The filter plate was precoated with 5% hexadecane in hexane. Stock solutions of compounds were diluted to 1 mM in a donor buffer (pH 6.5). Lucifer yellow was added to the apical wells of the precoated MultiScreen plate containing compound donor solution. The donor buffer solutions were spiked with each test compound (1 mM). The acceptor-buffer solution was prepared by adding 10 μL DMSO to 990 μL acceptor buffer (pH 7.4) and 250 μL were added to the basolateral (acceptor) wells. The donor plate was carefully inserted into the acceptor plate and incubated at room temperature for 4 h. After the incubation period, 50 μL of samples from the acceptor plate were transferred to a round bottom 96-well plate, together with 30 μL of donor buffer for matrix matching. Theoretical equilibrium samples for each test compound were prepared by adding 150 μL of donor solutions to 250 μL acceptor solutions and left at room temperature. These theoretical equilibrium samples represent complete transfer of the compound into the donor well. For the theoretical equilibrium samples, 80 μL were added to the analysis plate. Lastly, 160 μL of the internal standard carbamazepine (0.1 μM) was added to all acceptor and equilibrium samples. A portion of the sample containing Lucifer yellow was analyzed on a BioRad iMark^TM Microplate Absorbance Reader (BioRad, Hercules, CA, United States; excitation 490 nm, emission 510–570 nm) to determine that P app was within the acceptable range (<50 nm/s). Samples were analysed using reverse phase Gemini NX-C18 column (5 μM, 2.1 mm × 50 mm) with a Shimadzu HPLC coupled with an AB Sciex 3200 Q TRAP MS). The Papp for each compound was determined using. C=VD × VA/(VD+VA) ×A×t where VA = volume of donor compartment (0.15 cm^3), VD = volume of acceptor compartment (0.25 cm^3), A = accessible filter area (0.24 cm^2) and t = incubation time (14,400 s). […]
In general terms: In PAMPA a lipid-coated filter parts donor from acceptor wells.

A further series is described as follows: Plasma stability. The following applies: human plasma. The protocol:
Stock solutions of compounds in DMSO were used to spike pooled human plasma. Samples were transferred in duplicate to 6 different wells of a 96-deep well plate. An aliquot of each sample was immediately quenched with ice cold acetonitrile containing the internal standard carbamazepine (0.1 μM), after which the plate was incubated in a water bath (37°C for 1 h). Aliquots of samples were removed at 5, 15, 40, 60, and 180 min and quenched with ice cold acetonitrile. After samples of the final time point were precipitated, the supernatant was transferred to a round bottom 96-well plate for analysis by LC-MS/MS using a reverse phase Gemini NX-C18 column (5 μM, 2.1 mm × 50 mm) with a Shimadzu HPLC coupled with an AB Sciex 3200 Q TRAP MS). The peak area ratios were used to calculate the amount of parent compound remaining and t1/2 in plasma, using the following equations.
% Parent remaining % Parent= Normalised peak area of sample at timepoint/Normalised peak area of sample at t=0 x 100
Predicted t1/2 t1/2= −0.693/λ Where λ is the slope of the Ln % parent remaining vs. time curve.

The nature of series [2]: Plasma protein binding (ultracentrifugation). The following applies: pooled plasma; human plasma; read-out: Bound to plasma proteins (converted). As to the method: (§1) Plasma protein binding was determined in pooled human plasma using an ultracentrifugation method. Stock solutions of test compounds were diluted in phosphate buffer and spiked into plasma in deep well 96-well plates. An aliquot of each compound was immediately precipitated with ice cold acetonitrile containing the internal standard carbamazepine (0.1 μM). These served as total concentration samples. After incubation in a water bath (37°C for 1 h), samples were transferred to ultracentrifuge tubes in duplicate and centrifuged for 4 h at 37°C and 30,000 g (Optima L-80XP, Beckman). Following centrifugation, the supernatant was transferred to the plate containing the total concentration samples and precipitated with ice cold acetonitrile containing the internal standard. Samples were analysed by LC-MS/MS (Shimadzu HPLC coupled with an AB Sciex 3200 Q TRAP MS). Non-specific binding in mouse liver microsomes (MLM) and human liver microsomes (HLM) were also determined with the ultracentrifugation method. Stock solutions of compounds (10 mM) were added in duplicate to microsome solution (0.5 mg/mL) in phosphate buffer (pH 7.4) to obtain a final drug concentration of 1 μM. The same method as for plasma protein binding was utilized. Analyte concentrations of all compounds were determined via LC-MS/MS (reverse phase Gemini NX-C18 column and Shimadzu HPLC coupled with an AB Sciex 3200 Q TRAP MS).

Series [3] is described as follows: Non-specific liver microsomal binding, HLM. The following applies: human liver microsomes. As to the method: as §1
Background: Microsomes from liver hold many membrane-bound enzymes, among them those of drug oxidation.

What is called half-life is the time in which the quantity being followed falls by half. As for `CCCCCCCCCCOc1cc2c(=O)c(C(=O)NCCOCCO)c[nH]c2cc1OCC` [RMB005], in series [1], the Papp at 4 h, 1 mM is 0.501 ×10⁻⁶ cm/s. The “Plasma stability (in words)” value was “good plasma stability” in the series “Plasma stability” and “relatively stable” in the series “Plasma stability” (listed as RMB-005). The half-life in “Plasma stability” (pooled plasma, 37°C) was above 2.5 h. Moreover, the fraction unbound at 1 h in series [2] is 0.08. In addition, in series [3], the Bound to microsomes amounted to 99%.
